Test results taken from ChEMBL document CHEMBL2021850, “Steroidal C-21 heteroaryl thioethers. Part 3: pregn-4-eno-[3,2-c]pyrazole fused A ring modified steroids as selective glucocorticoid receptor modulators (dissociated steroids)” (Bioorg Med Chem Lett, 2012).

Key:
Glucocorticoid receptor [1] = molecular target: T1, Glucocorticoid receptor (Homo sapiens, UniProt P04150); assay: Transactivation activity at human glucocorticoid receptor in cells co-expressing GRE by luciferase reporter gene assay relative to control; conditions: read-out: Efficacy
T1 sequence (P04150 whole entry): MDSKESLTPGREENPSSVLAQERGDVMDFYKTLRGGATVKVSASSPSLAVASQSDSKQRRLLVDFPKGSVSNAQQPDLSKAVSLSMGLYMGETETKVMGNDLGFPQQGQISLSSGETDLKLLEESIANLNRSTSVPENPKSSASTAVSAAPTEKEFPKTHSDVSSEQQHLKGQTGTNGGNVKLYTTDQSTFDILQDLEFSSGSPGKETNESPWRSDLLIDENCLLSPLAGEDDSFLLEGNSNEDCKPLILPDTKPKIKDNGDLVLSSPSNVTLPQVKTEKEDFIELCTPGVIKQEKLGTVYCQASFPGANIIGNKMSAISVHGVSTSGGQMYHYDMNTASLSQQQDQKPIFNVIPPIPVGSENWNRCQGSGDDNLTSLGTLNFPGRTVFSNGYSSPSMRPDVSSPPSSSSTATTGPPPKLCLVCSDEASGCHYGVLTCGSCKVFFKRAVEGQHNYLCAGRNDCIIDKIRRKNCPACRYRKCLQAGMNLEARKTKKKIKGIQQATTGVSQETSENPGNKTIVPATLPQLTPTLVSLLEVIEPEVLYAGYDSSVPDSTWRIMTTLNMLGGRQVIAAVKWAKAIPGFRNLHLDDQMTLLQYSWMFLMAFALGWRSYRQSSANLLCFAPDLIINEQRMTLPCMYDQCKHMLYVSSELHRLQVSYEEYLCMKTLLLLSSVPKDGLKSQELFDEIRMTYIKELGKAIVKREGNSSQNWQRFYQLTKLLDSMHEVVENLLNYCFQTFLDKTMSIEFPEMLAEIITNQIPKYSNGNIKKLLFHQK

Glucocorticoid receptor [2] = molecular target: T2, Glucocorticoid receptor (Rattus norvegicus, UniProt P06536); assay: Transactivation activity at glucocorticoid receptor in rat H4II-E cells assessed as induction of tyrosine aminotransferase; assay type: ADME, cell-based
T2 sequence (P06536 whole entry): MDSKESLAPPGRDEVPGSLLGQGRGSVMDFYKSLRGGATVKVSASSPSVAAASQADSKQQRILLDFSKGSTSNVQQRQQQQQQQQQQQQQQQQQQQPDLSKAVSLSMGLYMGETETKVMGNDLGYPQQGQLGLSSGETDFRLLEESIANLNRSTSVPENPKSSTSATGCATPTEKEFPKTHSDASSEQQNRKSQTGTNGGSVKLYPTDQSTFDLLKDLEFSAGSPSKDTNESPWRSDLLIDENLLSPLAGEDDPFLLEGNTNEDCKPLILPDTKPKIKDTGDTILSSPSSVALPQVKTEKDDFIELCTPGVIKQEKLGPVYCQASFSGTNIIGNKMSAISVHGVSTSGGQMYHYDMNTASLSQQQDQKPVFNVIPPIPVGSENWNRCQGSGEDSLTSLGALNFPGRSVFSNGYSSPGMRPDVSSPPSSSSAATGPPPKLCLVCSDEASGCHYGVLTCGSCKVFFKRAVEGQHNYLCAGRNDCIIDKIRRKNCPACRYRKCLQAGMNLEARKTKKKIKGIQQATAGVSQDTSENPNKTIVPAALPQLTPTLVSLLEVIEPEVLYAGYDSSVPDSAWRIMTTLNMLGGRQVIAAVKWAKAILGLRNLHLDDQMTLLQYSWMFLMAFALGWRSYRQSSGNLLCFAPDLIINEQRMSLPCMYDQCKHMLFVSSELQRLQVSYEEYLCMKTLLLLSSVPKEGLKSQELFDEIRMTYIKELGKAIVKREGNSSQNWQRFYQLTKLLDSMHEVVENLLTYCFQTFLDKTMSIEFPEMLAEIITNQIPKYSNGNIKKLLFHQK

Glucocorticoid receptor [3] = molecular target: T1, Glucocorticoid receptor; assay: Transrepression activity at glucocorticoid receptor in human H292 cells assessed as inhibition of TNF-induced IL8 production; assay type: cell-based
Glucocorticoid receptor [4] = molecular target: T1, Glucocorticoid receptor; assay: Transactivation activity at glucocorticoid receptor in human HepG2 cells assessed as induction of tyrosine aminotransferase; assay type: ADME, cell-based
Glucocorticoid receptor [5] = molecular target: T1, Glucocorticoid receptor; assay: Transactivation activity at human glucocorticoid receptor in cells co-expressing GRE by luciferase reporter gene assay; conditions: read-out: IC50 (the source's name)
[6] = Cmax in po dosed rat; assay type: ADME, organism-based; design: route oral; conditions: in vivo; further: test concentration or dose not given here
[7] = AUC in po dosed rat; assay type: ADME, organism-based; conditions: plasma; further: test concentration or dose not given here

| Cmax [6] [ng/mL] | AUC [7] [ng·h/mL] | Compound | Emax (Glucocorticoid receptor [1]) [%] | IC50 (Glucocorticoid receptor [2]) [nM] | IC50 (Glucocorticoid receptor [3]) [nM] | IC50 (Glucocorticoid receptor [4]) [nM] | EC50 (Glucocorticoid receptor [5]) [nM] |
| --- | --- | --- | --- | --- | --- | --- | --- |
|  |  | C[C@]12CCC(=O)C=C1CC[C@@H]1[C@@H]2[C@@H](O)C[C@@]2(C)[C@H]1CC[C@]2(O)C(=O)CSc1nc2ccccc2s1 | 30 |  |  |  |  |
|  |  | C[C@]12Cc3cnn(-c4ccc(F)cc4)c3C=C1CC[C@@H]1[C@@H]2[C@@H](O)C[C@@]2(C)[C@H]1CC[C@]2(O)C(=O)COc1ccc2ccccc2c1 |  | 58 | 1.06 | 29.2 |  |
|  |  | C[C@]12Cc3cnn(-c4ccc(F)cc4)c3C=C1CC[C@@H]1[C@@H]2[C@@H](O)C[C@@]2(C)[C@H]1CC[C@]2(O)C(=O)CSc1nccc2ccccc12 |  | 65.4 | 1.6 | 37.3 |  |
|  |  | C[C@]12Cc3cnn(-c4ccc(F)cc4)c3C=C1CC[C@@H]1[C@@H]2[C@@H](O)C[C@@]2(C)[C@H]1CC[C@]2(O)C(=O)COc1cnc2ccccc2n1 |  |  | 1.89 | 98.7 |  |
|  |  | Cn1c(SCC(=O)[C@@]2(O)CC[C@H]3[C@@H]4CCC5=Cc6c(cnn6C6CCCCC6)C[C@]5(C)[C@H]4[C@@H](O)C[C@@]32C)nc2ccccc21 | 75 | 1000 | 6.6 |  |  |
|  |  | C[C@]12Cc3cnn(C4CCCCC4)c3C=C1CC[C@@H]1[C@@H]2[C@@H](O)C[C@@]2(C)[C@H]1CC[C@]2(O)C(=O)CSc1nc2ccccc2s1 | 78 | 54.7 | 7.1 | 400 |  |
|  |  | COc1ccc(-n2ncc3c2C=C2CC[C@@H]4[C@H]([C@@H](O)C[C@@]5(C)[C@H]4CC[C@]5(O)C(=O)CSc4nc5ccccc5s4)[C@@]2(C)C3)cc1 |  |  | 107 |  |  |
|  |  | C[C@]12Cc3cnn(C4CCCCC4)c3C=C1CC[C@@H]1[C@@H]2[C@@H](O)C[C@@]2(C)[C@H]1CC[C@]2(O)C(=O)CSc1cnc2ccccc2n1 | 84 |  | 12.4 |  |  |
|  |  | C[C@]12Cc3cnn(-c4ccc(F)cc4)c3C=C1CC[C@@H]1[C@@H]2[C@@H](O)C[C@@]2(C)[C@H]1CC[C@]2(O)C(=O)CSc1nc2ccccc2c(=O)[nH]1 |  | 86.5 | 3 | 93.5 |  |
|  |  | C[C@]12Cc3cnn(C4CCCCC4)c3C=C1CC[C@@H]1[C@@H]2[C@@H](O)C[C@@]2(C)[C@H]1CC[C@]2(O)C(=O)CO | 96 |  | 2.37 |  | 5.57 |
| 240 | 1040 | C[C@]12Cc3cnn(-c4ccc(F)cc4)c3C=C1CC[C@@H]1[C@@H]2[C@@H](O)C[C@@]2(C)[C@H]1CC[C@]2(O)C(=O)CO |  | 3.2 | 0.4 | 40.9 |  |
|  |  | C[C@]12Cc3cnn(C4CCCCC4)c3C=C1CC[C@@H]1[C@@H]2[C@@H](O)C[C@@]2(C)[C@H]1CC[C@]2(O)C(=O)CSc1ccccn1 | 87 |  | 4.4 |  |  |
|  |  | Cn1c(OCC(=O)[C@@]2(O)CC[C@H]3[C@@H]4CCC5=Cc6c(cnn6-c6ccc(F)cc6)C[C@]5(C)[C@H]4[C@@H](O)C[C@@]32C)nc2ccccc21 |  | 78 | 2.9 |  |  |
| 628 | 2480 | C[C@]12Cc3cnn(-c4ccccc4)c3C=C1CC[C@@H]1[C@@H]2[C@@H](O)C[C@@]2(C)[C@H]1CC[C@]2(O)C(=O)CO |  | 3.23 | 0.63 | 143 |  |
|  |  | C[C@]12Cc3cnn(-c4ccc(F)cc4)c3C=C1CC[C@@H]1[C@@H]2[C@@H](O)C[C@@]2(C)[C@H]1CC[C@]2(O)C(=O)CSc1ncccn1 |  | 14.3 | 0.6 | 37.7 |  |
|  |  | C[C@]12CCC(=O)C=C1CC[C@@H]1[C@@H]2[C@@H](O)C[C@@]2(C)[C@H]1CC[C@]2(O)C(=O)CSc1nc2ncccc2o1 | 37 |  | 61.3 |  |  |
|  |  | C[C@]12CCC(=O)C=C1CC[C@@H]1[C@@H]2[C@@H](O)C[C@@]2(C)[C@H]1CC[C@]2(O)C(=O)CSc1nnc(-c2ccccc2)o1 | 54 |  | 29.2 |  |  |

| Cmax [6] [ng/mL] | AUC [7] [ng·h/mL] | Compound | Emax (Glucocorticoid receptor [1]) [%] | IC50 (Glucocorticoid receptor [2]) [nM] | IC50 (Glucocorticoid receptor [3]) [nM] | IC50 (Glucocorticoid receptor [4]) [nM] | EC50 (Glucocorticoid receptor [5]) [nM] |
| --- | --- | --- | --- | --- | --- | --- | --- |
|  |  | C[C@]12Cc3cnn(-c4ccccc4)c3C=C1CC[C@@H]1[C@@H]2[C@@H](O)C[C@@]2(C)[C@H]1CC[C@]2(O)C(=O)COc1cnc2ccccc2n1 | 56 |  | 3.7 |  |  |
|  |  | C[C@]12Cc3cnn(-c4ccc(F)cc4)c3C=C1CC[C@@H]1[C@@H]2[C@@H](O)C[C@@]2(C)[C@H]1CC[C@]2(O)C(=O)CSc1ccc2ccccc2n1 |  | 24.3 | 5.3 | 18.3 |  |
|  |  | C[C@]12Cc3cnn(-c4ccc(F)cc4)c3C=C1CC[C@@H]1[C@@H]2[C@@H](O)C[C@@]2(C)[C@H]1CC[C@]2(O)C(=O)CSc1ccc2ccccc2c1 |  | 52.5 | 0.72 | 30.5 |  |
|  |  | C[C@]12CCC(=O)C=C1CC[C@@H]1[C@@H]2[C@@H](O)C[C@@]2(C)[C@H]1CC[C@]2(O)C(=O)CSc1ccc(Cl)c(Cl)c1 | 28 |  | 27.2 |  |  |
|  |  | Cn1c(SCC(=O)[C@@]2(O)CC[C@H]3[C@@H]4CCC5=Cc6c(cnn6-c6ccc(F)cc6)C[C@]5(C)[C@H]4[C@@H](O)C[C@@]32C)nc2ccccc21 |  | 174 | 1.1 | 88.7 |  |
|  |  | C[C@]12Cc3cnn(-c4ccc(F)cc4)c3C=C1CC[C@@H]1[C@@H]2[C@@H](O)C[C@@]2(C)[C@H]1CC[C@]2(O)C(=O)CSc1ccccn1 |  | 4.5 | 0.5 | 4.7 |  |
|  |  | Cc1cccc(SCC(=O)[C@@]2(O)CC[C@H]3[C@@H]4CCC5=CC(=O)CC[C@]5(C)[C@H]4[C@@H](O)C[C@@]32C)n1 | 18 |  | 127 |  |  |
|  |  | C[C@]12Cc3cnn(C4CCOCC4)c3C=C1CC[C@@H]1[C@@H]2[C@@H](O)C[C@@]2(C)[C@H]1CC[C@]2(O)C(=O)CSc1nc2ccccc2s1 |  |  | 86.4 |  |  |
|  |  | C[C@]12Cc3cnn(-c4ccc(F)cc4)c3C=C1CC[C@@H]1[C@@H]2[C@@H](O)C[C@@]2(C)[C@H]1CC[C@]2(O)C(=O)COc1ccc2ccccc2n1 |  | 44.7 | 1.8 |  |  |
|  |  | C[C@]12Cc3cnn(-c4ccc(F)cc4)c3C=C1CC[C@@H]1[C@@H]2[C@@H](O)C[C@@]2(C)[C@H]1CC[C@]2(O)C(=O)COc1nc2ccccc2s1 |  | 84 | 2.1 |  |  |
|  |  | C[C@]12Cc3cnn(C4CCCCC4)c3C=C1CC[C@@H]1[C@@H]2[C@@H](O)C[C@@]2(C)[C@H]1CC[C@]2(O)C(=O)CSc1nc2ccccc2o1 | 72 | 31.6 | 3.12 | 82.1 |  |
|  |  | C[C@]12Cc3cnn(C4CCCCC4)c3C=C1CC[C@@H]1[C@@H]2[C@@H](O)C[C@@]2(C)[C@H]1CC[C@]2(O)C(=O)CSc1ccc2ccccc2n1 | 71 |  | 44.7 |  |  |
|  |  | C[C@]12Cc3cnn(C4CCCCC4)c3C=C1CC[C@@H]1[C@@H]2[C@@H](O)C[C@@]2(C)[C@H]1CC[C@]2(O)C(=O)CSc1ncccn1 | 76 |  | 7.3 | 1000 | 137 |
|  |  | C[C@]12Cc3cnn(-c4ccccc4)c3C=C1CC[C@@H]1[C@@H]2[C@@H](O)C[C@@]2(C)[C@H]1CC[C@]2(O)C(=O)CSc1nc2ccccc2s1 | 89 | 57.3 | 7.5 | 165 |  |
|  |  | C[C@]12Cc3cnn(-c4ccc(F)cc4)c3C=C1CC[C@@H]1[C@@H]2[C@@H](O)C[C@@]2(C)[C@H]1CC[C@]2(O)C(=O)CSc1nc2ccccc2s1 |  | 24.1 | 1.7 | 101 |  |
|  |  | C[C@]12Cc3cnn(-c4ccccn4)c3C=C1CC[C@@H]1[C@@H]2[C@@H](O)C[C@@]2(C)[C@H]1CC[C@]2(O)C(=O)CSc1nc2ccccc2s1 |  |  | 179 |  |  |
